Molecules are shown by their SMILES. Structures can show the parent of a compound that is named as a salt.

The values below come from patent publication US7741493B2, “Heterocyclic compounds as P2X7 ion channel blockers” (Aventis Pharmaceuticals Inc., priority 2003, dated 2010).

One assay addresses T1, P2X7 (Homo sapiens, UniProt Q99572).
T1 sequence (Q99572 1-595): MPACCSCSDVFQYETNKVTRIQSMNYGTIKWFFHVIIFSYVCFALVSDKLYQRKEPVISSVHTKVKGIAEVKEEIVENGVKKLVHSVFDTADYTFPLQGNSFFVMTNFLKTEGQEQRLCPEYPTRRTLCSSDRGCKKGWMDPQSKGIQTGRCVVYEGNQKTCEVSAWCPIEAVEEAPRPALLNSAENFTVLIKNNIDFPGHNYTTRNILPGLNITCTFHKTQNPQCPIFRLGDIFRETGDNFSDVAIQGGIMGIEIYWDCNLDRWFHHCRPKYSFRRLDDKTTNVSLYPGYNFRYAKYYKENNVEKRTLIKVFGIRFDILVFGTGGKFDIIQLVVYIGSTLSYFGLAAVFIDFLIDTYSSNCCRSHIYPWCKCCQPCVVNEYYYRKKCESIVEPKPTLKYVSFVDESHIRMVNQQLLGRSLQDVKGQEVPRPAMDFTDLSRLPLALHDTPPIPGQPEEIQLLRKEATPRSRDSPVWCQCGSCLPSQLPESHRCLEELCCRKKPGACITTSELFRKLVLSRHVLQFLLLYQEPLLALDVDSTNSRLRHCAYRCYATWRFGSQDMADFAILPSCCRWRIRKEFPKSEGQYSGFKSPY
Put plainly: YO-PRO-1 dye uptake assay in U373 cells stably expressing P2X7. Format: cell-based. Further details: The complete open reading frame of human P2X7 was amplified from Incyte clone 148057; expressed in transfected cells. Conditions: IC50 (nM), dye uptake through P2X7, U373 cells, 300 μM BzATP, 5 μM YO-PRO-1, test compounds 30 nM to 3 μM. A digest of the protocol: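 U373 cells stably expressing human P2X7 preincubated 20 min at 37° C. with compound (30 nM to 3 μM) in Mg/Ca-free HBSS. YO-PRO-1 (5 μM final) and BzATP (300 μM final) then added for 1.5 h at 37° C.; dye-uptake fluorescence compared with compound-free control.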
As for `c1ccc(CNCC2=N[C@@H](c3ccccc3)[C@@H](c3ccccc3)N2)cc1` [[(cis-4,5-Diphenyl-4,5-dihydro-1H-imidazol-2-yl)methyl]benzylamine ditrifluoroacetate], 318 nM corresponded to half-maximal inhibition (IC50).

Staying with this assay, now noted: dye uptake through P2X7, U373 cells, 300 μM BzATP, 5 μM YO-PRO-1, test compounds 30 nM to 3 μM; read-out: IC50.
With `c1ccc(SCC2=N[C@@H](c3ccccc3)[C@@H](c3ccccc3)N2)cc1` [2-[(Phenylsulfanyl)methyl]-cis-4,5-diphenyl-4,5-dihydro-1H-imidazole trifluoroacetate], the IC50 was 198 nM.
Still for that read-out and setting: in the case of `c1ccc(C2N=C(C3Cc4ccccc4C3)NC2c2ccccc2)cc1` (stereo not shown) [2-indan-2-yl-4,5-diphenyl-4,5-dihydro-1H-imidazole trifluoroacetate] it was 50 nM.
On the same count and under the same terms, as for `c1ccc([C@H]2NC(CC3Cc4ccccc4C3)=N[C@H]2c2ccccc2)cc1` [2-indan-2-ylmethyl-cis-4,5-diphenyl-4,5-dihydro-1H-imidazole trifluoroacetate], the figure is 240 nM.
Consider `Fc1cc(CNC2=N[C@@H](c3ccccc3)[C@@H](c3ccccc3)N2)cc(F)c1F` [(cis-4,5-Diphenyl-4,5-dihydro-1H-imidazol-2-yl)-(3,4,5-trifluorobenzyl)amine hydrochloride], for which the IC50 was determined as 77 nM.
Take `Fc1cc(F)cc(CNC2=N[C@@H](c3ccccc3)[C@@H](c3ccccc3)N2)c1` [(cis-4,5-Diphenyl-4,5-dihydro-1H-imidazol-2-yl)-(3,5-difluorobenzyl)amine hydrochloride]: the IC50 worked out at 102 nM.
For `Fc1cccc(CNC2=N[C@@H](c3ccccc3)[C@@H](c3ccccc3)N2)c1` [(cis-4,5-Diphenyl-4,5-dihydro-1H-imidazol-2-yl)-(3-fluorobenzyl)amine hydrochloride], the IC50 turned out to be 89 nM.
As to `Fc1ccc(CNC2=N[C@@H](c3ccccc3)[C@@H](c3ccccc3)N2)cc1` [(cis-4,5-Diphenyl-4,5-dihydro-1H-imidazol-2-yl)-(4-fluorobenzyl)amine hydrochloride], the 50% inhibitory concentration (IC50) came to 96 nM.
On the same count and under the same terms, in the case of `c1ccc([C@H]2NC(NCC3CCCCC3)=N[C@H]2c2ccccc2)cc1` [(cis-4,5-Diphenyl-4,5-dihydro-1H-imidazol-2-yl)-(cyclohexylmethyl)amine hydrochloride] it was 124 nM; in that of `CN(Cc1ccccc1)C1=N[C@@H](c2ccccc2)[C@@H](c2ccccc2)N1` [(cis-4,5-Diphenyl-4,5-dihydro-1H-imidazol-2-yl)-N-methylbenzylamine hydrochloride], 147 nM; in that of `Fc1ccccc1CCNC1=N[C@@H](c2ccccc2)[C@@H](c2ccccc2)N1` [(cis-4,5-Diphenyl-4,5-dihydro-1H-imidazol-2-yl)-[2-(2-fluorophenyl)ethyl]amine hydrochloride], 87 nM.
Consider `Fc1ccc(CNC2=N[C@@H](c3ccccc3F)[C@@H](c3ccccc3F)N2)cc1` [(cis-4,5-bis-(2-Fluorophenyl)-4,5-dihydro-1H-imidazol-2-yl)-(4-fluorobenzyl)amine hydrochloride], for which the IC50 amounted to 390 nM.
As for `Fc1ccccc1[C@H]1NC(NCc2ccccc2)=N[C@H]1c1ccccc1F` [(cis-4,5-bis-(2-Fluorophenyl)-4,5-dihydro-1H-imidazol-2-yl)-benzylamine hydrochloride], the IC50 turned out to be 531 nM.
On to `Fc1cccc(CNC2=N[C@@H](c3ccccc3Br)[C@@H](c3ccccc3Br)N2)c1` [[cis-4,5-bis-(2-Bromophenyl)-4,5-dihydro-1H-imidazol-2-yl]-(3-fluorobenzyl)amine hydrochloride], for which the IC50 is 782 nM.
The same measure, in the same setting: as for `Fc1ccc(CNC2=N[C@@H](c3ccccc3Br)[C@@H](c3ccccc3Br)N2)cc1` [[cis-4,5-bis-(2-Bromophenyl)-4,5-dihydro-1H-imidazol-2-yl]-(4-fluorobenzyl)amine hydrochloride], the figure is 898 nM; as for `Fc1ccc(CNC2=N[C@@H](c3ccccc3Cl)[C@@H](c3ccccc3Cl)N2)cc1F` [[cis-4,5-bis-(2-Chlorophenyl)-4,5-dihydro-1H-imidazol-2-yl]-(3,4-difluorobenzyl)-amine hydrochloride], 378 nM; as for `Fc1cccc(CNC2=N[C@@H](c3ccccc3Cl)[C@@H](c3ccccc3Cl)N2)c1` [[cis-4,5-bis-(2-Chlorophenyl)-4,5-dihydro-1H-imidazol-2-yl]-(3-fluorobenzyl)amine hydrochloride], 592 nM.
`Fc1ccc(CNC2=N[C@@H](c3ccccc3Cl)[C@@H](c3ccccc3Cl)N2)cc1` [[cis-4,5-bis-(2-Chlorophenyl)-4,5-dihydro-1H-imidazol-2-yl]-(4-fluorobenzyl)amine hydrochloride]: the IC50 is 624 nM.
Still for that read-out and setting: in the case of `Clc1ccccc1[C@H]1NC(NCc2ccccc2)=N[C@H]1c1ccccc1Cl` [[cis-4,5-bis-(2-Chlorophenyl)-4,5-dihydro-1H-imidazol-2-yl]-benzylamine hydrochloride] it was 925 nM.
Same read-out and setting: as for `Fc1ccc(CNC2=N[C@@H](c3ccccc3F)[C@@H](c3ccccc3F)N2)cc1F` [[cis-4,5-bis-(2-Fluorophenyl)-4,5-dihydro-1H-imidazol-2-yl]-(3,4-difluorobenzyl)-amine hydrochloride], the figure is 312 nM.
Same read-out and setting: as for `Cc1cccc(CNC2=N[C@@H](c3ccccc3F)[C@@H](c3ccccc3F)N2)c1` [[cis-4,5-bis-(2-Fluorophenyl)-4,5-dihydro-1H-imidazol-2-yl]-(3-methylbenzyl)amine hydrochloride], the figure is 379 nM.
With `Cc1ccccc1[C@H]1NC(NCc2ccc(F)c(F)c2)=N[C@H]1c1ccccc1C` [[cis-4,5-bis-(2-Methylphenyl)-4,5-dihydro-1H-imidazol-2-yl]-(3,4-difluorobenzyl)-amine hydrochloride], the IC50 came out at 77 nM.
Consider `Cc1ccccc1[C@H]1NC(NCc2cccc(F)c2)=N[C@H]1c1ccccc1C` [[cis-4,5-bis-(2-Methylphenyl)-4,5-dihydro-1H-imidazol-2-yl]-(3-fluorobenzyl)amine hydrochloride], for which the IC50 came to 121 nM.
`Cc1ccccc1[C@H]1NC(NCc2ccc(F)cc2)=N[C@H]1c1ccccc1C` [[cis-4,5-bis-(2-Methylphenyl)-4,5-dihydro-1H-imidazol-2-yl]-(4-fluorobenzyl)amine hydrochloride]: the IC50 is 139 nM.
Still for that read-out and setting: as for `Cc1ccccc1[C@H]1NC(NCc2ccccc2)=N[C@H]1c1ccccc1C` [[cis-4,5-bis-(2-Methylphenyl)-4,5-dihydro-1H-imidazol-2-yl]-benzylamine hydrochloride], the figure is 167 nM.
The same measure, in the same setting: in the case of `Fc1ccc(CNC2=N[C@@H](c3cccc(Cl)c3)[C@@H](c3cccc(Cl)c3)N2)cc1F` [[cis-4,5-bis-(3-Chlorophenyl)-4,5-dihydro-1H-imidazol-2-yl]-(3,4-difluorobenzyl)-amine hydrochloride] it was 247 nM; in that of `Fc1ccc(CNC2=N[C@@H](c3cccc(Cl)c3)[C@@H](c3cccc(Cl)c3)N2)cc1` [[cis-4,5-bis-(3-Chlorophenyl)-4,5-dihydro-1H-imidazol-2-yl]-(4-fluorobenzyl)amine hydrochloride], 318 nM; in that of `Clc1cccc([C@H]2NC(NCc3ccccc3)=N[C@H]2c2cccc(Cl)c2)c1` [[cis-4,5-bis-(3-Chlorophenyl)-4,5-dihydro-1H-imidazol-2-yl]-benzylamine hydrochloride], 433 nM.
Same read-out and setting: as for `Fc1cccc([C@H]2NC(NCc3ccc(F)c(F)c3)=N[C@H]2c2cccc(F)c2)c1` [[cis-4,5-bis-(3-Fluorophenyl)-4,5-dihydro-1H-imidazol-2-yl]-(3,4-difluorobenzyl)-amine hydrochloride], the figure is 71 nM; as for `Fc1ccc(CNC2=N[C@@H](c3cccc(F)c3)[C@@H](c3cccc(F)c3)N2)cc1` [[cis-4,5-bis-(3-Fluorophenyl)-4,5-dihydro-1H-imidazol-2-yl]-(4-fluorobenzyl)amine hydrochloride], 71 nM; as for `Fc1cccc([C@H]2NC(NCc3ccccc3)=N[C@H]2c2cccc(F)c2)c1` [[cis-4,5-bis-(3-Fluorophenyl)-4,5-dihydro-1H-imidazol-2-yl]-benzylamine hydrochloride], 90 nM.
`Cc1cccc([C@H]2NC(NCc3ccc(F)c(F)c3)=N[C@H]2c2cccc(C)c2)c1` [[cis-4,5-bis-(3-Methylphenyl)-4,5-dihydro-1H-imidazol-2-yl]-(3,4-difluorobenzyl)-amine hydrochloride]: the IC50 was found to be 118 nM.
Same read-out and setting: as for `Cc1cccc([C@H]2NC(NCc3cccc(F)c3)=N[C@H]2c2cccc(C)c2)c1` [[cis-4,5-bis-(3-Methylphenyl)-4,5-dihydro-1H-imidazol-2-yl]-(3-fluorobenzyl)amine hydrochloride], the figure is 121 nM.
Turning to `Cc1cccc([C@H]2NC(NCc3ccc(F)cc3)=N[C@H]2c2cccc(C)c2)c1` [[cis-4,5-bis-(3-Methylphenyl)-4,5-dihydro-1H-imidazol-2-yl]-(4-fluorobenzyl)amine hydrochloride], the IC50 turned out to be 107 nM.

Broadly, the IC50 is the midpoint of a concentration-inhibition curve.
